In ChEMBL document CHEMBL1201862, “PubChem BioAssay data set” (2004):
Activity calls are given as the source filed them.

Tests used:
[1] = microbe, parasite or virus in culture; type: functional; conditions: Mycobacterium tuberculosis
[2] = target: T1, Serine/threonine-protein phosphatase (Homo sapiens, UniProt Q9BPW0); assay: Counterscreen for inhibitors of PP1: fluorescence-based biochemical high throughput dose response assay to identify inhibitors of Protein Phosphatase 5 (PP5). [Related pubchem assays: 2034 (Summary (PP5 inhibitors)), 1987 (PP5 inhibitors in singlate), 2235 (PP1 inhibitors in singlate)]
T1 sequence (Q9BPW0 whole entry): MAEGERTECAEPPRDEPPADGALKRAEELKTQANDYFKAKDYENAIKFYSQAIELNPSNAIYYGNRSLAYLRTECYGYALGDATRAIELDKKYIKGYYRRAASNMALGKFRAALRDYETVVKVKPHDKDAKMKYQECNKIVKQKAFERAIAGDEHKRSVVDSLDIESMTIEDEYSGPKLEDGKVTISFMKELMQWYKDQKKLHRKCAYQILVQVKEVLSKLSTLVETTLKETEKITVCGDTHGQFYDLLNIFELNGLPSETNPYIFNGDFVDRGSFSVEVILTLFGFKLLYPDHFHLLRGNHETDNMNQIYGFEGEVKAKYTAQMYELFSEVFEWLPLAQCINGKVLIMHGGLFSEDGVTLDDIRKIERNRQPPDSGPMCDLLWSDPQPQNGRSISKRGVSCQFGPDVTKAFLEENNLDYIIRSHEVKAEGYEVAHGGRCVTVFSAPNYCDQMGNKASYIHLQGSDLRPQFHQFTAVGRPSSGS

[3] = tested on: Streptococcus sp. 'group A'; assay: growth inhibition of control SK(-) GAS strain, dose response, counter-screen for streptokinase expression inhibitor project, luminescence, kanamycin, BacTiterGlo, confirmation (AID 1900); type: functional, organism-based
[4] = target: T2, Streptokinase A (Streptococcus pyogenes serotype M1, UniProt P10520); assay: S. pyogenes streptokinase expression inhibitors, potency, dose response, plasminogen activation absorbance, OD405 (AID 1914); type: functional, Streptococcus pyogenes M1 GAS;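 note: secreted streptokinase activity via plasminogen activation per viability signal from cell pellet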
T2 sequence (P10520 whole entry): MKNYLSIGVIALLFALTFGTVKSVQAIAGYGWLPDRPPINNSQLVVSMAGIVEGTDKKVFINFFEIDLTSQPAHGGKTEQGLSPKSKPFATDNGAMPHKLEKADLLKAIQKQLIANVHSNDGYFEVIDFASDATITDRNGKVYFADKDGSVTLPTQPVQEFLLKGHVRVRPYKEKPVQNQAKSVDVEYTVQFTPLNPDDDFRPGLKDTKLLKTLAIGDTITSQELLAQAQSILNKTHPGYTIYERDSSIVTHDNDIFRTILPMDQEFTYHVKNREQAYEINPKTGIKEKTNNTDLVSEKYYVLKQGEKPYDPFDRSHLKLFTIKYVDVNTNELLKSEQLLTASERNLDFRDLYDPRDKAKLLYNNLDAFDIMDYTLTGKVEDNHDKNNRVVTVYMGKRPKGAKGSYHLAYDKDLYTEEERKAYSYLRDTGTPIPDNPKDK

[5] = cytotoxicity in HPDE-C7 cells, cell-based, fluorescence, HTS (AID 430); type: functional; conditions: Homo sapiens
[6] = cytotoxicity in KRAS-transformed pancreatic duct cells, primary screen, cell-based, fluorescence, HTS (AID 431); type: functional; conditions: Homo sapiens;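 note: cell line used: HPDE-C7K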
[7] = tested on: Streptococcus; assay: Group A Streptococcus viability loss, dose response, counter-screen for streptokinase expression inhibitor project, luminescence, BacTiterGlo (AID 1915); type: functional, organism-based;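 note: potency for reduction of bacterial viability or growth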
[8] = target: Heat shock protein HSP 90-alpha (Homo sapiens, UniProt P07900); type: functional, organism-based
[9] = target: T3, Aspartyl aminopeptidase (Plasmodium falciparum 3D7, UniProt Q8I2J3)
T3 sequence (Q8I2J3 whole entry): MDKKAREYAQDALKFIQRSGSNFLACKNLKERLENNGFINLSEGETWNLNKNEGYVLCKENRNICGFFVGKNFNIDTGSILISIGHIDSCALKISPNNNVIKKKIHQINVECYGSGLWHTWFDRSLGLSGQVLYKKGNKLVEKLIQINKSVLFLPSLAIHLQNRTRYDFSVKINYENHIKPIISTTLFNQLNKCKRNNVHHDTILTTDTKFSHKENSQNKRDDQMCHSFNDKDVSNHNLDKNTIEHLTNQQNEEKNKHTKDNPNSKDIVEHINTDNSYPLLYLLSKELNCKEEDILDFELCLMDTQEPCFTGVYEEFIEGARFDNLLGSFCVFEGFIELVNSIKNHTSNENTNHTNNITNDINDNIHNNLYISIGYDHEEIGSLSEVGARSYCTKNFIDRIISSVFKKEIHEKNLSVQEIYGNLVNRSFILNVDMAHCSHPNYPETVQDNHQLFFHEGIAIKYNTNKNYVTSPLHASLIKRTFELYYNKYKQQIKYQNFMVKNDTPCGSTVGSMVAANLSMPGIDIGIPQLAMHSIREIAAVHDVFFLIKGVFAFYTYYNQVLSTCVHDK

[10] = target: Procathepsin L (Homo sapiens, UniProt P07711)
[11] = inhibitors of Bluetongue virus cytopathic effect, confirmation, arbovirus, BSR cells (AID 1250); type: functional;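 note: protection from viral cytopathic effect measured as cell viability by ATP luminescence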
[12] = target: Induced myeloid leukemia cell differentiation protein Mcl-1 (Homo sapiens, UniProt Q07820); type: functional
[13] = target: T4, Fatty acid synthase (Homo sapiens, UniProt P49327); assay: FAS thioesterase domain inhibitors, dose response, biochemical, endpoint fluorescence intensity, uHTS hits (AID 624327); type: functional;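 note: fluorescence from hydrolysis of an O-methyl fluorescein acyl ester substrate by the enzyme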
[14] = target: T4, Fatty acid synthase; assay: FAS thioesterase domain inhibitors, dose response, biochemical, kinetic fluorescence intensity (AID 624326); type: functional;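 note: rate of fluorescence rise from hydrolysis of a fluorogenic O-methyl fluorescein ester substrate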
[15] = target: T5, Estrogen receptor (Homo sapiens, UniProt P03372); assay: potentiators of ERα–SRC-1 coactivator binding, dose response, biochemical, TR-FRET, ERα LBD (AID 737)
T5 sequence (P03372 whole entry): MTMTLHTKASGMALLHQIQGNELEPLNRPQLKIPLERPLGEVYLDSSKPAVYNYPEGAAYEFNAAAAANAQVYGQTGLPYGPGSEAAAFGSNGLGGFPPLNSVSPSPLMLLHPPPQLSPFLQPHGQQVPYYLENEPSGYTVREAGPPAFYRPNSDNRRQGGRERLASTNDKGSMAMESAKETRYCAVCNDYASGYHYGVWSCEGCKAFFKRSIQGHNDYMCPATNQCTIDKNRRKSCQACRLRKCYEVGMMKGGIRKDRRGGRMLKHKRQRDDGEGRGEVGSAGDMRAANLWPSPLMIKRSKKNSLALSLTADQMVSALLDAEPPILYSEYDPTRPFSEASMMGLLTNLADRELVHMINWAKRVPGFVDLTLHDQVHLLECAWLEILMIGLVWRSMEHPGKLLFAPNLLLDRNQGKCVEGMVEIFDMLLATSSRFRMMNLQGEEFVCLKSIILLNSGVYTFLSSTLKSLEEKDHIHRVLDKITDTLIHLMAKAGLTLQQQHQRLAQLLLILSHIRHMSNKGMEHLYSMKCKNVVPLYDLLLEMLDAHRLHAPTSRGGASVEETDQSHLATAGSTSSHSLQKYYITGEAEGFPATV

[16] = tested on: H9c2; assay: cells; type: functional, cell-based; conditions: Rattus norvegicus, H9c2, Myocardium;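 note: confirmatory concentration-response retest of ultra-high-throughput screening hits for modulation of myocardial damage; cell death induced by hydrogen peroxide oxidative stress; compound pretreatment for 60 min then peroxide exposure for 2 h; potency is for protecting the cells against peroxide damage rather than for killing them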
[17] = tested on: HEK293; assay: NOD1 signaling inhibitors, primary screen, cell-based, luminescence, uHTS (AID 1578); type: functional; conditions: Homo sapiens
[18] = tested on: HEK293; assay: cells; type: functional, cell-based; conditions: Homo sapiens
[19] = tested on: HEK293; assay: cells; type: functional, cell-based; conditions: Homo sapiens; remark: listed apart in the source
[20] = target: Nucleotide-binding oligomerization domain-containing protein 2 (Homo sapiens, UniProt Q9HC29); assay: NOD2 signaling inhibitors, cell-based, luminescence, uHTS, HEK293 (AID 1566); type: functional
[21] = tested on: HEK293; assay: NOD2 signaling inhibitors in MDP-stimulated cells, cell-based, uHTS, luminescence (AID 2001); type: functional; conditions: Homo sapiens
[22] = tested on: HEK293; assay: cells; type: functional, cell-based; conditions: Homo sapiens; remark: listed apart in the source
[23] = target: Cytochrome P450 2C9 (Homo sapiens, UniProt P11712)
[24] = target: Prothrombin (Homo sapiens, UniProt P00734); assay: Thrombin 1536 HTS Dose Response Confirmation. [Related pubchem assays: 1046 (Thrombin 1536 HTS; hits were confirmed in this assay)]; type: functional
[25] = target: T6, Coagulation factor XII (Homo sapiens, UniProt P00748); type: functional;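 note: activated factor XIIa alpha cleaving a fluorogenic AMC peptide substrate; inhibitor potency from loss of enzyme activity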
T6 sequence (P00748 whole entry): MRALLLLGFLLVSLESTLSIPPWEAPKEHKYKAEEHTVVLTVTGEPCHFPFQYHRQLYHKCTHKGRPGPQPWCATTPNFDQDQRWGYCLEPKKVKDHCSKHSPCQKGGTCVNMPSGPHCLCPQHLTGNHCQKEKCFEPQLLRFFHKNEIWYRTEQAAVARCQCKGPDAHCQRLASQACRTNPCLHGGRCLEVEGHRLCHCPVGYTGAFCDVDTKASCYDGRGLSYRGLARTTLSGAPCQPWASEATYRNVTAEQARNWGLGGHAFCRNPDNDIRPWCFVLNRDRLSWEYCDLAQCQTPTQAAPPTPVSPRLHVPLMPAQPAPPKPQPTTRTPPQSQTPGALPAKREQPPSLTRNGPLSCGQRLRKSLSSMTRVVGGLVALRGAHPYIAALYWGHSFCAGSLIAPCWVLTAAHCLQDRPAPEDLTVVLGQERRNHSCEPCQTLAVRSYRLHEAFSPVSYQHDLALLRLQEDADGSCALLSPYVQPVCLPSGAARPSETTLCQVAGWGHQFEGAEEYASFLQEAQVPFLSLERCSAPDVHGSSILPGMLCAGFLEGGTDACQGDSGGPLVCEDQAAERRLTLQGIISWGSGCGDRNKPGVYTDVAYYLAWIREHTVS

[26] = tested on: Vero; assay: Vero cell cytotoxicity, cytotoxicity control for flavivirus capping enzyme inhibitors (AID 588742); type: functional; conditions: Chlorocebus sabaeus
[27] = target: Genome polyprotein (dengue virus type 2, UniProt P29990); assay: Dengue-2 NS5 methyltransferase inhibitors, primary screen, biochemical, confirmation dose response (AID 588689); type: functional
[28] = target: T7, Probable nicotinate-nucleotide adenylyltransferase (Staphylococcus aureus (strain N315), UniProt P65502); type: functional, Staphylococcus aureus subsp. aureus N315;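 for IC50 Mean: confirmatory dose-response retesting of NadD inhibitor hits first found in an ultra-high-throughput screen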
[29] = target: T7, Probable nicotinate-nucleotide adenylyltransferase; type: functional, Staphylococcus aureus subsp. aureus N315; conditions: read-out: IC50_Mean
[30] = target: Cytochrome P450 2D6 (Homo sapiens, UniProt P10635);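 note: CYP2D6 member of a cytochrome P450 panel assay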

T7 sequence (P65502 whole entry): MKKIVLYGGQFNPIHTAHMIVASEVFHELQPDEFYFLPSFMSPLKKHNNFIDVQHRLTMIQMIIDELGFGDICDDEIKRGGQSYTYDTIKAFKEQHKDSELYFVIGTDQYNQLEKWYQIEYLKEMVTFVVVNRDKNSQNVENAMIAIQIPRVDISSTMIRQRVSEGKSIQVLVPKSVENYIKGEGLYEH
T4 sequence (P49327 whole entry, the tested form may be a part): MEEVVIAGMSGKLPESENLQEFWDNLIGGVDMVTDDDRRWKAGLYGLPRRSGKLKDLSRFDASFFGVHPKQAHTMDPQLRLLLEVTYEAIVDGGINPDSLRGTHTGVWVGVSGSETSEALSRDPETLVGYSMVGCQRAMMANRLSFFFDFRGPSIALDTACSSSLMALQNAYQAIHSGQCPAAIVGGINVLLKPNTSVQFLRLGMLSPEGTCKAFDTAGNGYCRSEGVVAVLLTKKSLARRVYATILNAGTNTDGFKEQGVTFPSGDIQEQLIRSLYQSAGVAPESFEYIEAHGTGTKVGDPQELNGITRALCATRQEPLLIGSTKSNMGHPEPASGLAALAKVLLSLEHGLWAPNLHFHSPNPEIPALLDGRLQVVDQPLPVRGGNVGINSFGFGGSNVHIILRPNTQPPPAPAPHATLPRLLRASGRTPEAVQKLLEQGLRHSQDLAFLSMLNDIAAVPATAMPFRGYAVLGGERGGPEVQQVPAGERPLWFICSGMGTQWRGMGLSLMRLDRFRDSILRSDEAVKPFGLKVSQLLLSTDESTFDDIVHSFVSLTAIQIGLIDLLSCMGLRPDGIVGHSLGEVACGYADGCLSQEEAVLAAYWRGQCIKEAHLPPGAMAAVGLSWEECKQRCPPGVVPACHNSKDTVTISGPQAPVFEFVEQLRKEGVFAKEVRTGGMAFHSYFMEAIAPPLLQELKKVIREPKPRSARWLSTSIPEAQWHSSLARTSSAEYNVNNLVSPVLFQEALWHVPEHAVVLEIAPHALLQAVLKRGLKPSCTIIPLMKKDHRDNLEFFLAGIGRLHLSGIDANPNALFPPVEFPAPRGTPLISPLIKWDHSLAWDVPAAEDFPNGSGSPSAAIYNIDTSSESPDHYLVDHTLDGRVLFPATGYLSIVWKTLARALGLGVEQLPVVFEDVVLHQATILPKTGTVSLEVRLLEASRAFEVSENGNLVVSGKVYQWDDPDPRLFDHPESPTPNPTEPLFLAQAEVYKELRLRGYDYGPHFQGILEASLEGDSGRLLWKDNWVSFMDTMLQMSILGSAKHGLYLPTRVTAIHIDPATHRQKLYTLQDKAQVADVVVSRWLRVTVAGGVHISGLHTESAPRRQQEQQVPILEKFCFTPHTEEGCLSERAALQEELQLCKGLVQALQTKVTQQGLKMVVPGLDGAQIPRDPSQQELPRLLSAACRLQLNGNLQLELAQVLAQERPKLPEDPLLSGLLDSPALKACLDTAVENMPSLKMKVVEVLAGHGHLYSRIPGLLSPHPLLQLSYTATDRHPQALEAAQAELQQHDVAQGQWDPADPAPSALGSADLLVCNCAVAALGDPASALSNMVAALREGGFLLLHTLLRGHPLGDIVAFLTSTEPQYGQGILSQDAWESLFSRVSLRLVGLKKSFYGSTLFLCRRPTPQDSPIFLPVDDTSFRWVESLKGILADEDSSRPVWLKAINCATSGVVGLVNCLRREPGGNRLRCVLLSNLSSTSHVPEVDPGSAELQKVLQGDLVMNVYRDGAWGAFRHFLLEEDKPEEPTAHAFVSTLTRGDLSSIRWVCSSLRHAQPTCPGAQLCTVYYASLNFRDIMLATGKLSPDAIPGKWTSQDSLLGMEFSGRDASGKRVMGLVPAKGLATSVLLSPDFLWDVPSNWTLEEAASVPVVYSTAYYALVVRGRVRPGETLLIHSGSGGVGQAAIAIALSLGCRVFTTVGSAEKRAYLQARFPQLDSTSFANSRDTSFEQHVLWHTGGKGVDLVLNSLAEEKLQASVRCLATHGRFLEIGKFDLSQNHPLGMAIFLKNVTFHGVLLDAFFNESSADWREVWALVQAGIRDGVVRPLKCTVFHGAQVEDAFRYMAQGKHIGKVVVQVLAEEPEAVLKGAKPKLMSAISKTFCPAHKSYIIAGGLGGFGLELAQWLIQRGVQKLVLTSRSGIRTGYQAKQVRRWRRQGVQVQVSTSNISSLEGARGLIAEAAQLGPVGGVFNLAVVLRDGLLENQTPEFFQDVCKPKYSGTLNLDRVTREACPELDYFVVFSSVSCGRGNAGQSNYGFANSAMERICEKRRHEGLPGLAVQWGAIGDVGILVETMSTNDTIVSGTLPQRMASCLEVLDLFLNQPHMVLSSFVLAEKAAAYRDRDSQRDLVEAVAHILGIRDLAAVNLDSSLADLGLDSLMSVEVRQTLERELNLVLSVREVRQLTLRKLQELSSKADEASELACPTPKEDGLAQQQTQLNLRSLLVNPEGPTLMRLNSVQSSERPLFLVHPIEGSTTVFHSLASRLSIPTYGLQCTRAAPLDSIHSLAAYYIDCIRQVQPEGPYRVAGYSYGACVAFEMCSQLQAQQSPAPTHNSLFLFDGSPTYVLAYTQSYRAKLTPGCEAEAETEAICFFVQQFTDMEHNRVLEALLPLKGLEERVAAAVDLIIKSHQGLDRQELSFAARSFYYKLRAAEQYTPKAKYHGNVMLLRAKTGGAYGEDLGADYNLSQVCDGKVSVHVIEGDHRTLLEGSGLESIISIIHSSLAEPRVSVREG
Induced myeloid leukemia cell differentiation protein Mcl-1, sequence (Q07820 whole entry, the tested form may be a part): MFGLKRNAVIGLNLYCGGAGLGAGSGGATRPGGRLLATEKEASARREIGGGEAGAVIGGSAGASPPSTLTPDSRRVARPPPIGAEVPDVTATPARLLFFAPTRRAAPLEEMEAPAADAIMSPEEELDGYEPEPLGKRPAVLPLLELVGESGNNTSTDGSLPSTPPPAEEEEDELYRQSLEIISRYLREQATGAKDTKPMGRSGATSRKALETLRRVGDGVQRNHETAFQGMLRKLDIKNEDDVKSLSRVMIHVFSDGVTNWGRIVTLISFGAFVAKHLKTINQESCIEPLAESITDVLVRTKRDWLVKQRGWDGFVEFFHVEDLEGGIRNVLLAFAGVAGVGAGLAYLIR
Genome polyprotein, sequence (P29990 2492-3391 limits assumed): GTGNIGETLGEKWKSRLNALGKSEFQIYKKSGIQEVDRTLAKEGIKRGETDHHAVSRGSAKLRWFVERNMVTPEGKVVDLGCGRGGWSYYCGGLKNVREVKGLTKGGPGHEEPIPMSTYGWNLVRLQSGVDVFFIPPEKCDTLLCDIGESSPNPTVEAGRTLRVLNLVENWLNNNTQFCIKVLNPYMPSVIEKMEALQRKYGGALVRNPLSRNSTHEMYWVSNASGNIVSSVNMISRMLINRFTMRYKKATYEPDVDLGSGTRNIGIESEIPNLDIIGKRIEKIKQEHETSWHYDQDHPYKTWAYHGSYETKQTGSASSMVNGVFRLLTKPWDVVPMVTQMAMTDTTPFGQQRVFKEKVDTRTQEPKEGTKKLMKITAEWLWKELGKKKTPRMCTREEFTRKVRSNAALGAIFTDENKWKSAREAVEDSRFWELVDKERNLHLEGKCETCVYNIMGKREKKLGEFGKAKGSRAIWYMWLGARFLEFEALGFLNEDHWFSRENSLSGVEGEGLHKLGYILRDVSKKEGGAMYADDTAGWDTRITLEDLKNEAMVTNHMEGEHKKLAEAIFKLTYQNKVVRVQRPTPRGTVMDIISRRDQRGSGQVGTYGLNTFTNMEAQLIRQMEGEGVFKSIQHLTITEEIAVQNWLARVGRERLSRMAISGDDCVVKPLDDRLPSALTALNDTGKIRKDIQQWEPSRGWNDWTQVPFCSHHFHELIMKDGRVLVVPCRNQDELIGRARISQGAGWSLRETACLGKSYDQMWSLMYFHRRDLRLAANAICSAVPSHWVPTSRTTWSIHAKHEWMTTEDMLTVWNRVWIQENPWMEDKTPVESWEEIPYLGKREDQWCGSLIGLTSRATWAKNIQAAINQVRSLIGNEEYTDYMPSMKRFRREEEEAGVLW
Cytochrome P450 2C9, sequence (P11712 whole entry): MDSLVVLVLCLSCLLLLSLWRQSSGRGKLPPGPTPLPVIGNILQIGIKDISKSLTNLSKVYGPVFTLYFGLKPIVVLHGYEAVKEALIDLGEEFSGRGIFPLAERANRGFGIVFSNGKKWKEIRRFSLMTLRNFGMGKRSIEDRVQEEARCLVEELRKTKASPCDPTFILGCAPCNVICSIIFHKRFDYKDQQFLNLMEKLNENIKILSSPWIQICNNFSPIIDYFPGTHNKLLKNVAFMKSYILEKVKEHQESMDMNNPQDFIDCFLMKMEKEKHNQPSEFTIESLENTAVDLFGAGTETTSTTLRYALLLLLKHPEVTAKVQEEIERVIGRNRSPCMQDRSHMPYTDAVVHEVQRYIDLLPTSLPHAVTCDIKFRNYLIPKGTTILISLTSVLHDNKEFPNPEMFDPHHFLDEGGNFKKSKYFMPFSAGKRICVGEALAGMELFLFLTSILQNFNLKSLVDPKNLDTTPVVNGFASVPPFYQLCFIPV
Procathepsin L, sequence (P07711 whole entry): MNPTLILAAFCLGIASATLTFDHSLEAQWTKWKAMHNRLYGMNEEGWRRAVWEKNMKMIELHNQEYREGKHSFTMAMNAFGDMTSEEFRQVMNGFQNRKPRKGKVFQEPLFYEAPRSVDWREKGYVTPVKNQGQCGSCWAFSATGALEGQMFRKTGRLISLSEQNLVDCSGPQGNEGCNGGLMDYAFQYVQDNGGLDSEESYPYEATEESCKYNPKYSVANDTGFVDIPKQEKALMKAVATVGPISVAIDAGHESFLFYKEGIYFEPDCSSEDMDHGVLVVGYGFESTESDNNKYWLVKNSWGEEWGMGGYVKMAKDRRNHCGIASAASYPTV

COc1cc(/C=N/n2c(-c3ccc4c(c3)NC(=O)CO4)cs/c2=N\c2cccc(C)c2)ccc1O
CC50 [1]: 25 µM (active)

Cc1ccc(C(=O)CC(SCC(=O)O)c2ccc([N+](=O)[O-])cc2)cc1 (stereo not given)
CC50 [1]: 30.6 µM (active)

O=C1OC(=O)C2C3CCC(O3)C12 (stereo not given)
IC50 [2]: 2.57 µM (active)

Cc1cc2n(n1)C(c1c[nH]c3ccccc13)Nc1ccccc1-2 (stereo not given)
EC50 [3]: 8.99 µM (active) | EC50 [4]: 18.1 µM (active) | EC50 [5]: 12 µM (active) | EC50 [6]: 12.9 µM (active) | EC50 [7]: > 150 µM (not active) | AC50 [8]: 6.08 µM (active)

O=C1OC(=O)C2C1[C@@H]1CC[C@H]2O1 (stereo not given in full)
IC50 [2]: 3.06 µM (active)

O=C(NC1(C(F)(F)F)Oc2ccccc2O1)N1CCC2(CC1)OCCO2
IC50 [9]: 2.78 µM (active) | IC50 [10]: > 59.6 µM (not active)

COc1ccc(C(=O)O)cc1NC(=S)NC(=O)c1ccc(-c2ccc(Cl)cc2)o1
EC50 [3]: 5.27 µM (active) | EC50 [4]: 23.8 µM (inconclusive) | IC50 [11]: 27.1 µM (active) | IC50 [12]: 7.13 µM (not active) | EC50 [7]: > 150 µM (not active) | IC50 [13]: 7.33 µM (active) | IC50 [14]: 7.5 µM (active)

Cc1ccc(-c2nn3c(C)nnc3s2)cc1NC(=O)COc1ccc(Cl)cc1
EC50 [15]: 17.2 µM (active) | IC50 [16]: > 79 µM (inactive)

Cc1ccc(-c2csc(N3CCN(CCCn4c(-c5ccncc5)nc5ccccc54)CC3)n2)cc1
EC50 [17]: 6.11 µM (active) | IC50 [18]: 4.3 µM (active) | IC50 [19]: 11.4 µM (active) | EC50 [20]: 12.3 µM (active) | IC50 [21]: 4.62 µM (active) | IC50 [22]: > 20 µM (inactive) | CC50 [1]: > 40 µM (active)

Cc1ccc(S(=O)(=O)NCCn2c(C)cc3ccccc32)cc1
EC50 [15]: 28.7 µM (active) | AC50 [23]: 3.55 µM (inconclusive)

O=C(Oc1cccc2cccnc12)c1cccs1
EC50 [5]: 3.46 µM (active) | EC50 [6]: 4.38 µM (active)

NC(=O)/C(=N\OC(=O)c1ccco1)c1nc(-c2ccc(Br)cc2)cs1
IC50 [24]: 0.925 µM (active) | IC50 [11]: 34.3 µM (active) | IC50 [25]: 21 µM (active) | CC50 [26]: > 40 µM (active) | IC50 [27]: 40.8 µM (active) | IC50 [28]: 7.32 µM (active) | IC50 [29]: 29.2 µM (active) | AC50 [30]: 25.1 µM (inconclusive)
